Values of other authors as cited in patent US20120277147A1, “PREVENTION OF HYPOGLYCAEMIA IN DIABETES MELLITUS TYPE 2 PATIENTS” (priority 2011, published 2012).

Test system: patients with type 2 diabetes treated with metformin and a sulfonylurea
Conditions: 30 week; patients unable to achieve adequate glycemic control with combined metformin-sulfonylurea therapy

Exendin-4: native exendin peptide, SEQ ID NO: 2 (39 AS), which can lower blood glucose concentration
Effect on HbA1c: significantly reduced HbA1c
